Laboratory results as given in patent US20230346810A1, “ENDOGENOUS STABILIZATION OF CANNABINOIDS” (Abstrax Tech Inc., priority 2022, published 2023).

Key:
[1] = UV-Visible spectroscopy of color purity of THC oils; type: physicochemical; settings: 5% by weight CBDA added, versus sample without CBDA; FIG. 8
Procedure: The color purities of THC oils with and without acidic cannabinoids were measured using a LabTech BlueStar A UV-Vis Spectrophotometer. The data collection range was from 250 nm to 1100 nm at a scan rate of 3 nm per second. About 1 g of sample was added to scintillation vial followed by addition of 5 mL of ethanol. The solution was agitated for 2 min in order to fully dissolve the oil and transferred to a UV-Vis quartz cuvette. An ethanol background was collected prior to running the samples to reduce solvent.

[2] = Color change / oxidation of cannabinoid oils on exposure to air (visual); type: physicochemical; settings: about 5% CBDA by weight added, homogenized under mild heat (about 70° C.)

Compound	visible absorption after CBDA addition (UV-Visible spectra) [1]	color of solution after CBDA addition [2]
CCCCCc1cc(O)c2c(c1)OC(C)(C)[C@@H]1CC=C(C)C[C@@H]21 [Sample D8-THC, Δ8-tetrahydrocannabinol]	less visible absorption	
CCCCCc1cc(O)c2c(c1)OC(C)(C)[C@@H]1CCC(C)=C[C@@H]21 [Sample D9-THC, Δ^9-tetrahydrocannabinol]		yellow solution with minimal discoloration
